Calls of active or inactive are those of the source.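 Rule for the calls: active = compounds giving half or more protection of infected cells from virus-caused growth loss, again on retest; inactive = the rest.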 Where a SMILES comes first, the peptide text is derived from it. The star is where a group is joined. Fmoc = O=C(OCC1c2ccccc2-c2ccccc21)*; OBn = c1ccc(CO*)cc1; tBu = CC(C)(C)*
System: CEM cells HIV-1 protection, formazan growth assay
Assay: NCI AIDS Antiviral Assay
Details: for IC50: measured here: growth of uninfected CEM cells
Procedure, shortened: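 Screen of anti-HIV-1 activity in human CEM cells using a formazan-based growth measurement at five drug concentrations. Hits with 50% or greater protection were repeated, and confirmation required reproducible complete protection.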

Compound	EC50	IC50	outcome
COC[C@]12CN(C=O)[C@H]3C4[C@H](OC)[C@H]1C3([C@@H](OC)C[C@H]2O)[C@@H]1C[C@@]2(O)[C@H](OC(=O)c3ccccc3)[C@@H]1[C@]4(OC(C)=O)[C@@H](O)[C@@H]2OC	> 200 µM	> 200 µM	–
Cc1cc(C)n(-c2nsc3ccccc23)n1	> 112 µM	> 112 µM	–
CCCCOc1cc(C[S+]2CCCC2)c(OC)cc1C[S+]1CCCC1	> 145 µM	14.8 µM	–
COc1ccc(C=NC23CC4CC(CC(C4)C2)C3)cc1	> 95.5 µM	> 95.5 µM	–
CCOC(=O)c1c(N)sc2c1C(C(=O)OCC)CC2 (configuration not stated)	> 200 µM	174 µM	–
COc1ccc(C(=O)Nc2cc(Cc3cc(NC(=O)c4ccc(OC)c(C(=O)O)c4)c(OC)c(C(=O)O)c3)cc(C(=O)O)c2OC)cc1C(=O)O	> 50.1 µM	> 50.1 µM	–
O/N=C(\C(=N/O)Nc1ccc(-c2ccc(NC(=N/O)/C(=N\O)c3ccccc3)cc2)cc1)c1ccccc1	> 37.2 µM	30.9 µM	–
O=S(CC(O)c1ccccc1)c1ccccc1 (configuration not stated)	> 200 µM	23.4 µM	–
COc1cc(C(CN)N(C)C)cc(OC)c1OC (configuration not stated)	> 200 µM	> 200 µM	–
O=c1[nH]c(=O)n(C2OC(CO)C(O)C2O)cc1NN=NCc1ccccc1 (configuration not stated)	> 182 µM	> 182 µM	–
O=C1C(c2ccc([N+](=O)[O-])cc2)=[N+]([O-])c2ccc([N+](=O)[O-])cc21	–	–	inactive
Nc1ccc(CCN2CCN(c3cccc(C(F)(F)F)c3)CC2)cc1	–	–	inactive
COc1ccc(C(=O)C(C(=O)C(=O)Nc2nccs2)c2ccc(OC)cc2)cc1 (configuration not stated)	> 63.1 µM	> 63.1 µM	–
c1ccc(NNC2=NCCN2)cc1	> 200 µM	55 µM	–
COc1cccc(/C=N/[N-]C(N)=O)c1[O-].[Co+2].[OH3+].c1ccncc1	> 14.5 µM	> 14.5 µM	–
CCOC(=O)C(Cc1cn(S(=O)(=O)c2ccc(C)cc2)cn1)P(=O)(OCC)OCC (configuration not stated)	> 200 µM	> 200 µM	–
CCOC(=O)CC1=CSC2=NCCN12	–	–	inactive
O=C1OC(c2cccc(C(F)(F)F)c2)(c2cccc(C(F)(F)F)c2)c2ccc3ccccc3c21	–	–	inactive
O=C(CC1(O)C(=O)Nc2c(Cl)cc(Cl)cc21)c1ccco1 (configuration not stated)	> 398 µM	83.2 µM	–
C(/C=C/Nc1ccc(Oc2ccccc2)cc1)=Nc1ccc(Oc2ccccc2)cc1	> 200 µM	9.33 µM	–
Cc1ccc(SCC(CF)OCn2cnc3c(N)ncnc32)cc1 (configuration not stated)	> 200 µM	> 200 µM	–

Compound	EC50	IC50	outcome
CSC(C)CS(=O)(=O)O (configuration not stated)	> 200 µM	> 200 µM	–
CC(C)(C)[Si](C)(C)OC1C(/C=N\O)OC(n2ccc(=O)[nH]c2=O)C1O[Si](C)(C)C(C)(C)C (configuration not stated)	> 200 µM	3.55 µM	–
CCCCCCCCCCCCCCCCCC(=O)OCC(O)CO (configuration not stated)	> 2.09 µM	> 2.09 µM	–
OCC1=CC(NC2CC(CO)C(O)C(O)C2O)C(O)C(O)C1O (configuration not stated)	–	–	inactive
O=c1c2ccc3cccc4c(=O)cc(c5ccccc15)-c2c34	–	–	inactive
COc1ccn(CC(C)=O)c(=O)n1	> 200 µM	> 200 µM	–
O=C1OC2(C(F)(F)F)Oc3ccccc3CN2C12CCCCC2 (configuration not stated)	> 200 µM	115 µM	–
Nc1c(S(=O)(=O)O)cc2cc(S(=O)(=O)O)ccc2c1N=Nc1ccc(S(=O)(=O)c2ccc(N=Nc3c(N)c(S(=O)(=O)O)cc4cc(S(=O)(=O)O)ccc34)cc2)cc1	> 64.6 µM	> 64.6 µM	–
COC(=O)c1c2cccccc-2c(Cc2c3cccccc-3c(C(=O)OC)c2O)c1O	> 200 µM	> 200 µM	–
CCOC(=O)C(=O)Nc1c(C)cccc1C(C)C	> 1000 µM	> 1000 µM	–
CC(Oc1ccc(OCC2CCCCC2)cc1)C(=O)NCCO (configuration not stated)	> 295 µM	41.7 µM	–
C1OCN2CSCC12 (configuration not stated)	> 1910 µM	110 µM	–
CCN(CC)c1ccc(/C=C2/C[N+](C)(C)C/C(=C/c3ccc(N(CC)CC)cc3)C2=O)cc1	> 6.61 µM	6.46 µM	–
Cc1nc2ccc(S(=O)(=O)Nc3nccs3)cc2c(=O)n1NS(=O)(=O)c1nccs1	> 200 µM	49 µM	–
O=C(Nc1ccc(C2=NCCN2)cc1)c1ccc(F)c(C(=O)Nc2ccc(C3=NCCN3)cc2)c1	> 200 µM	> 200 µM	–
CC(OC(C)(C)C)C(NC(=O)OCC1c2ccccc2-c2ccccc21)C(=O)NC(Cc1ccccc1)C(=O)OCc1ccccc1 (configuration not stated) (Fmoc-Thr(tBu)-Phe-OBn; configuration not given here)	> 200 µM	> 200 µM	–
CC1=Nc2ccccc2S/C1=C(/C)NNS(=O)(=O)c1ccc(C)cc1	> 53.7 µM	> 53.7 µM	–
COC1CC(OC)C(O)C(CO)O1 (configuration not stated)	–	–	inactive
O=[N+]([O-])c1cccc(S(=O)(=O)N2CCCC2)c1	> 200 µM	166 µM	–
CC1(C)C2CCC1(C)C(NC(=O)CCN1CCOCC1)C2 (configuration not stated)	> 851 µM	537 µM	–
CC(c1ccccc1)C(O)S(=O)(=O)O (configuration not stated)	–	–	inactive

Compound	EC50	IC50	outcome
O=c1[nH]c2cc(O)ccc2c2cc3c(c(O)c12)OCO3	–	–	inactive
O=C1/C=C/C(=O)OCCCC(=O)/C=C/C(=O)OCCC1	–	–	inactive
O=C(N=C1[Se]C(=Nc2ccccc2)C(=Nc2ccccc2)N1c1ccccc1)c1ccccc1	> 200 µM	107 µM	–
COCC[N+](CCNC(=O)c1cccc2c(N)c3cccc(C)c3nc12)(CCOC)Cc1ccc([N+](=O)[O-])cc1	> 200 µM	13.2 µM	–
Cc1c(C)c(C)c2c(c1C)CC2=O	> 77.6 µM	> 77.6 µM	–
CCCCCCN(N)C(=O)CC#N	> 39.8 µM	> 39.8 µM	–
CCC/C=C(/Br)[Si](C)(C)C	> 427 µM	372 µM	–
CN1CCN(C(=O)/N=N\C(=O)N2CCN(C)CC2)CC1	> 200 µM	> 200 µM	–
Cc1cc(C[C@H]2O[C@@H]3OC(C)(C)O[C@@H]3[C@H]3OC(C)(C)O[C@H]32)c2ccccc2n1	> 200 µM	64.6 µM	–
COc1c(C)c2c(c3c1c(=O)c1ccccc1n3C)C=CC(C)(C)O2	> 15.5 µM	11 µM	–
CCOC(=O)/C=C(/C)Nc1nc2c(c(C(=O)OC)c1C#N)CCCC2	> 200 µM	> 200 µM	–
O=c1c2ccccc2nc(/C=C(\O)c2ccccc2)n1-c1ccccc1Cl	–	–	inactive
O=C1C=CC(=O)C2C1C1CC3C=CC312 (configuration not stated)	> 1350 µM	> 1350 µM	–
c1nc2nc3c(cn2n1)CCCC3	–	–	inactive
CCOC(=O)[C@@H]1[C@@H]2NC(=O)N[C@@]1(C)Oc1ccccc12	> 200 µM	> 200 µM	–
Cc1nc(-c2nc(C)c(C(=O)NNC(=O)C[n+]3ccccc3)s2)sc1C(=O)NNC(=O)C[n+]1ccccc1	> 57.5 µM	> 57.5 µM	–
Cc1ccc(S(=O)(=O)N2CCN3C(=O)c4ccccc4C32c2ccc(F)cc2)cc1 (configuration not stated)	> 200 µM	31.6 µM	–
O=C(/C=C/c1ccc(O)c(O)c1)Oc1ccccc1	> 200 µM	9.33 µM	–
Cc1cc(O)c(/C=N/C(N)=S)c(=O)o1	> 200 µM	> 200 µM	–
COC(=O)C(C(=O)C(=O)Nc1cccc([N+](=O)[O-])c1)c1nc2ccc([N+](=O)[O-])cc2[nH]c1=O (configuration not stated)	> 550 µM	309 µM	–
O=C(O)[C@@H]1CSC(C(O)C(O)C(O)CO)N1 (some centres not stated)	> 355 µM	> 355 µM	–

Compound	EC50	IC50	outcome
Cc1cc(Cl)ccc1NC(=O)CC/C(CC(=O)C(C)C)=N\NC(=O)C[n+]1ccccc1	> 16.2 µM	> 16.2 µM	–
O=C(C=P(c1ccccc1)(c1ccccc1)c1ccccc1)C12CC3CC(CC(C3)C1)C2	> 100 µM	6.61 µM	–
CCOP(=O)(OCC)C(=C1C=C(C(C)(C)C)C(=O)C(C(C)(C)C)=C1)P(=O)(OCC)OCC	> 200 µM	0.933 µM	–
CCC(C)(CC(=O)O)CC(=O)OC[C@]12CC[C@@H](C(C)C)[C@@H]1[C@H]1CC[C@@H]3[C@@]4(C)CC[C@H](OC(=O)CC(C)(CC)CC(=O)O)C(C)(C)[C@@H]4CC[C@@]3(C)[C@]1(C)CC2 (some centres not stated)	> 200 µM	7.08 µM	–
Nc1ccccc1-c1nc2c(ccc3ccccc32)[nH]1	> 72.4 µM	57.5 µM	–
O=C(Nc1cccc(C(F)(F)F)c1)C(=O)C1NC(=S)NC1=O (configuration not stated)	> 191 µM	> 191 µM	–
O=C1c2ccccc2C(=O)N1CCC[P+](c1ccccc1)(c1ccccc1)c1ccccc1	> 200 µM	95.5 µM	–
C=C1C2CCC3(CCC4C5(C)CCCC4(CN(CC)C5)C3C2)C1O (configuration not stated)	–	–	inactive
CC(C)Oc1cc2c(c3oc(=O)cc(-c4ccccc4)c13)C(=O)[C@H](C)[C@@H](C)O2	> 200 µM	51.3 µM	–
COC1OC(=O)C(OC)C(OC)C1OC (configuration not stated)	–	–	inactive
O=C(COc1ccc(OCC(=O)N2C(=O)CC(=O)N(c3ccc(Cl)cc3)C2=S)cc1)N1C(=O)CC(=O)N(c2ccc(Cl)cc2)C1=S	> 200 µM	42.7 µM	–
N#Cc1cc2c(N)ncnc2nc1N1CCCC1	> 200 µM	191 µM	–
CN(C)c1ncnc2c1Cc1ccccc1C(=O)N2C	60.3 µM	407 µM	–
CC(=O)OC1COC(OC2CC3(C)C4CC=C5C(C=C(O)CC5(C)C)[C@]4(C)CC[C@]3(C)C2C(C)(O)C(=O)/C=C/C(C)(C)O)C(OC(C)=O)C1O (some centres not stated)	–	–	inactive
CCOP(=O)(OCC)c1cc(NC(=O)c2cc(NC(=O)c3cc(NC(=O)Nc4cc(C(=O)Nc5cc(C(=O)Nc6cc(P(=O)(OCC)OCC)c7cccc(P(=O)(OCC)OCC)c7c6)n(C)c5)n(C)c4)cn3C)cn2C)cc2c(P(=O)(OCC)OCC)cccc12	> 200 µM	> 200 µM	–
COC(=O)C1=C(C(=O)OC)C2(CCCCCC2=O)OC1=O (configuration not stated)	> 851 µM	45.7 µM	–
N#Cc1cnc(-n2[nH]c3c(c2=O)CCCC3)[nH]c1=O	–	–	inactive
CC1(C)OC(=O)C=C[C@@]2(C)C1CC(=O)C1(C)C2CCC2(C)C(c3ccoc3)OC(=O)[C@H]3O[C@]321 (some centres not stated)	> 200 µM	> 200 µM	–
CCCCCCCC(=O)c1ccc(O)c(-c2nc3ccc(C(F)(F)F)cc3[nH]2)c1	> 24.5 µM	2.09 µM	–
CCOC(=O)c1nc2ccccc2nc1Nc1ccc(C(=O)OC)s1	> 200 µM	> 200 µM	–
O=c1c(O)c(-c2cc(O)c(O)c(O)c2)oc2cc(O)ccc12	> 832 µM	11.7 µM	–
